System: 997537-175-T-J1-PDC complex spheroid viability
Test: Anticancer human tumor 997537-175-T-J1-PDC patient-derived colon adenocarcinoma cell line growth inhibition [GQUAD]
Conditions: for IC50: curve of first compound; for viability, T/C: stronger effect = lower value
Procedure, shortened: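 Tumor cells were grown as complex spheroids with HUVEC endothelial cells and mesenchymal stem cells as stroma. G-quadruplex stabilizers were combined with targeted agents over half-log dilutions from near the clinical Cmax, or from 10 microM.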

[1] = second compound 0.0316 µM, first compound 0.000999 µM
[2] = second compound 0.0316 µM, first compound 0.00316 µM
[3] = second compound 0.0316 µM, first compound 0.00999 µM
[4] = second compound 0.0316 µM, first compound 0.0316 µM
[5] = second compound 0.0316 µM, first compound 0.0999 µM
[6] = second compound 0.0316 µM, first compound 0.316 µM
[7] = second compound 0.1 µM, first compound 0.000999 µM
[8] = second compound 0.1 µM, first compound 0.00316 µM
[9] = second compound 0.1 µM, first compound 0.00999 µM
[10] = second compound 0.1 µM, first compound 0.0316 µM
[11] = second compound 0.1 µM, first compound 0.0999 µM
[12] = second compound 0.1 µM, first compound 0.316 µM
[13] = second compound 0.316 µM, first compound 0.000999 µM
[14] = second compound 0.316 µM, first compound 0.00316 µM
[15] = second compound 0.316 µM, first compound 0.00999 µM
[16] = second compound 0.316 µM, first compound 0.0316 µM
[17] = second compound 0.316 µM, first compound 0.0999 µM
[18] = second compound 0.316 µM, first compound 0.316 µM
[19] = second compound 1 µM, first compound 0.000999 µM
[20] = second compound 1 µM, first compound 0.00316 µM
[21] = second compound 1 µM, first compound 0.00999 µM
[22] = second compound 1 µM, first compound 0.0316 µM
[23] = second compound 1 µM, first compound 0.0999 µM
[24] = second compound 1 µM, first compound 0.316 µM
[25] = second compound 3.16 µM, first compound 0.000999 µM
[26] = second compound 3.16 µM, first compound 0.00316 µM
[27] = second compound 3.16 µM, first compound 0.00999 µM
[28] = second compound 3.16 µM, first compound 0.0316 µM
[29] = second compound 3.16 µM, first compound 0.0999 µM
[30] = second compound 3.16 µM, first compound 0.316 µM
[31] = second compound 10 µM, first compound 0.000999 µM
[32] = second compound 10 µM, first compound 0.00316 µM
[33] = second compound 10 µM, first compound 0.00999 µM
[34] = second compound 10 µM, first compound 0.0316 µM
[35] = second compound 10 µM, first compound 0.0999 µM
[36] = second compound 10 µM, first compound 0.316 µM
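Further: spheroids exposed to the agents for 7 days.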
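Wherever viability, T/C is given: 100% = DMSO vehicle control viability.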

## CCc1c2c(nc3ccc(O)cc13)-c1cc3c(c(=O)n1C2)COC(=O)[C@]3(O)CC + Cc1[nH]c2ccc(F)cc2c1-c1nc2c3cccnc3c3ncccc3c2[nH]1
Second compound 0.0316 µM
  IC50: 0.0119 µM
Second compound 0.1 µM
  IC50: 0.00918 µM
Second compound 0.316 µM
  IC50: 0.0119 µM
Second compound 1 µM
  IC50: 0.00852 µM
Second compound 3.16 µM
  IC50: 0.0107 µM
Second compound 10 µM
  IC50: 0.00648 µM
[1]
  viability, T/C: 84.3%
[2]
  viability, T/C: 94.4%
[3]
  viability, T/C: 54.2%
[4]
  viability, T/C: 16.6%
[5]
  viability, T/C: 7.8%
[6]
  viability, T/C: 2.95%
[7]
  viability, T/C: 75%
[8]
  viability, T/C: 74.8%
[9]
  viability, T/C: 45.2%
[10]
  viability, T/C: 22%
[11]
  viability, T/C: 5.55%
[12]
  viability, T/C: 2.19%
[13]
  viability, T/C: 90.5%
[14]
  viability, T/C: 94.3%
[15]
  viability, T/C: 53.3%
[16]
  viability, T/C: 19.2%
[17]
  viability, T/C: 7.44%
[18]
  viability, T/C: 2.71%
[19]
  viability, T/C: 81.9%
[20]
  viability, T/C: 76.6%
[21]
  viability, T/C: 44.4%
[22]
  viability, T/C: 19.6%
[23]
  viability, T/C: 6.99%
[24]
  viability, T/C: 7.31%
[25]
  viability, T/C: 69%
[26]
  viability, T/C: 56.6%
[27]
  viability, T/C: 54%
[28]
  viability, T/C: 22.1%
[29]
  viability, T/C: 7.42%
[30]
  viability, T/C: 2.8%
[31]
  viability, T/C: 69.2%
[32]
  viability, T/C: 52.8%
[33]
  viability, T/C: 48%
[34]
  viability, T/C: 17.1%
[35]
  viability, T/C: 3.72%
[36]
  viability, T/C: 2.19%

## Cc1cccc(N(C)C(=O)C2C(O)CCN2c2nc(C)cc(C(F)(F)F)c2C#N)c1 (stereo unspecified) + Cc1[nH]c2ccc(F)cc2c1-c1nc2c3cccnc3c3ncccc3c2[nH]1
Second compound 0.0316 µM
  IC50: > 10 µM
Second compound 0.1 µM
  IC50: > 10 µM
Second compound 0.316 µM
  IC50: > 10 µM
Second compound 1 µM
  IC50: > 10 µM
Second compound 3.16 µM
  IC50: > 10 µM
Second compound 10 µM
  IC50: > 10 µM
[4]
  viability, T/C: 104%
Second compound 0.0316 µM, first compound 0.1 µM
  viability, T/C: 82.7%
[6]
  viability, T/C: 107%
Second compound 0.0316 µM, first compound 1 µM
  viability, T/C: 75.4%
Second compound 0.0316 µM, first compound 3.16 µM
  viability, T/C: 85.6%
Second compound 0.0316 µM, first compound 10 µM
  viability, T/C: 96%
[10]
  viability, T/C: 101%
Second compound 0.1 µM, first compound 0.1 µM
  viability, T/C: 97.8%
[12]
  viability, T/C: 96%
Second compound 0.1 µM, first compound 1 µM
  viability, T/C: 80.1%
Second compound 0.1 µM, first compound 3.16 µM
  viability, T/C: 99%
Second compound 0.1 µM, first compound 10 µM
  viability, T/C: 90.6%
[16]
  viability, T/C: 101%
Second compound 0.316 µM, first compound 0.1 µM
  viability, T/C: 74%
[18]
  viability, T/C: 92.8%
Second compound 0.316 µM, first compound 1 µM
  viability, T/C: 95%
Second compound 0.316 µM, first compound 3.16 µM
  viability, T/C: 100%
Second compound 0.316 µM, first compound 10 µM
  viability, T/C: 106%
[22]
  viability, T/C: 79.4%
Second compound 1 µM, first compound 0.1 µM
  viability, T/C: 95.3%
[24]
  viability, T/C: 108%
Second compound 1 µM, first compound 1 µM
  viability, T/C: 85.4%
Second compound 1 µM, first compound 3.16 µM
  viability, T/C: 104%
Second compound 1 µM, first compound 10 µM
  viability, T/C: 92.7%
[28]
  viability, T/C: 57.9%
Second compound 3.16 µM, first compound 0.1 µM
  viability, T/C: 89.9%
[30]
  viability, T/C: 76.9%
Second compound 3.16 µM, first compound 1 µM
  viability, T/C: 79.2%
Second compound 3.16 µM, first compound 3.16 µM
  viability, T/C: 69%
Second compound 3.16 µM, first compound 10 µM
  viability, T/C: 85.6%
[34]
  viability, T/C: 80.5%
Second compound 10 µM, first compound 0.1 µM
  viability, T/C: 93.8%
[36]
  viability, T/C: 80.6%
Second compound 10 µM, first compound 1 µM
  viability, T/C: 76.8%
Second compound 10 µM, first compound 3.16 µM
  viability, T/C: 105%
Second compound 10 µM, first compound 10 µM
  viability, T/C: 95.6%

## CC[C@@]1(O)C(=O)OCc2c1cc1n(c2=O)Cc2cc3c(CN(C)C)c(O)ccc3nc2-1 + Cc1[nH]c2ccc(F)cc2c1-c1nc2c3cccnc3c3ncccc3c2[nH]1
Second compound 0.0316 µM
  IC50: > 0.316 µM
Second compound 0.1 µM
  IC50: > 0.316 µM
Second compound 0.316 µM
  IC50: > 0.316 µM
Second compound 1 µM
  IC50: > 0.316 µM
Second compound 3.16 µM
  IC50: > 0.316 µM
Second compound 10 µM
  IC50: > 0.316 µM
[1]
  viability, T/C: 97.8%
[2]
  viability, T/C: 91.4%
[3]
  viability, T/C: 99.2%
[4]
  viability, T/C: 86.7%
[5]
  viability, T/C: 90.6%
[6]
  viability, T/C: 55.9%
[7]
  viability, T/C: 92%
[8]
  viability, T/C: 89.1%
[9]
  viability, T/C: 75.6%
[10]
  viability, T/C: 82.8%
[11]
  viability, T/C: 61.2%
[12]
  viability, T/C: 54.7%
[13]
  viability, T/C: 85.9%
[14]
  viability, T/C: 72.1%
[15]
  viability, T/C: 81.3%
[16]
  viability, T/C: 97%
[17]
  viability, T/C: 85.5%
[18]
  viability, T/C: 55.1%
[19]
  viability, T/C: 80.8%
[20]
  viability, T/C: 59.6%
[21]
  viability, T/C: 85.8%
[22]
  viability, T/C: 93%
[23]
  viability, T/C: 80.2%
[24]
  viability, T/C: 62.6%
[25]
  viability, T/C: 51.4%
[26]
  viability, T/C: 82.8%
[27]
  viability, T/C: 61%
[28]
  viability, T/C: 51.2%
[29]
  viability, T/C: 90.5%
[30]
  viability, T/C: 70.8%
[31]
  viability, T/C: 71.8%
[32]
  viability, T/C: 82.4%
[33]
  viability, T/C: 77.3%
[34]
  viability, T/C: 62.2%
[35]
  viability, T/C: 62.9%
[36]
  viability, T/C: 58.9%
